# Where “and” joins values, the source holds several entries; their conditions need not be identical. Identical values can stand only once.
# Key:
# Format in all cases: binding
# STAT3 = STAT3 (Homo sapiens, UniProt P40763); assay: CETSA, STAT3 in total cell lysates from NK-92 cells; set-up: the endogenous full‐length proteins (between 748 and 793 amino acids for STAT3/4/5a/5b); endogenous in cells; host or cells: NK-92 cells (DSMZ), whole-cell lysate; conditions: NK-92 cell lysates, 100 μM
# From the text: STAT3 was again chosen as a specificity control for CETSA analysis, because it had already been used as control in HTRF assays (Figure 2B), and because we had previously developed CETSA for STAT3 in NK‐92 lysates.^[ [11] ^] […] The relatively low thermal shifts obtained even with the high‐affinity control peptides are consistent with the fact that the SH2 domain of STATs only comprises a small proportion (≈100 amino acids) of the endogenous full‐length proteins (between 748 and 793 amino acids for STAT3/4/5a/5b).^[ [25] ^] […] The CETSA experiments were carried out in cell lysates, not in living cells, to account for the putative inability of PPADS and iso‐PPADS to cross the cell membrane owing to their large number of negative charges. […]
# (§1) CETSA experiments were performed based on the published protocol.[8] […] The soluble fractions were analyzed by Western blotting.
# (§2) Treated lysates were separated by SDS-PAGE on a 10% gel and transferred to nitrocellulose membrane using a TransBlot semi-dry blotting protocol (Bio-Rad Laboratories). Proteins of interest were detected using monoclonal rabbit primary antibodies (Cell Signaling), anti-rabbit-HRP-secondary antibody (Dako) and Pierce ECL Plus chemiluminescence reagent (Thermo Fisher). Bands were visualized using an ImageQuant system (GE Healthcare) and quantitated with ImageJ software (NIH).[9]
# [1] = system: total STAT5 (STAT5a and STAT5b); assay: CETSA, total STAT5 in lysates from K562 cells; conditions: K562 cell lysates, 100 μM
# Procedure: (§3) One method by which binding of small molecules to their expected targets in cell lysates can be inferred is the cellular thermal shift assay (CETSA).^[ [23], [24] ^] This assay is based on the observation that reversible protein binding by a small molecule typically stabilizes the bound protein against thermal denaturation. […]
# K562 cells (DSMZ) were cultured […]
# in RPMI 1640 medium containing 10% FBS, 2 mM L-glutamine and penicillin/streptomycin. For whole-cell lysates, cells were harvested by centrifugation, washed once with ice-cold PBS and resuspended at 3 x 10^6 cells per 100 µl in TBS supplemented with EDTA-free Halt Protease Inhibitor Cocktail (Fisher Scientific). Cells were lysed using three freeze-thaw cycles using liquid nitrogen and a room-temperature water bath. […]
# as §1, §2
# STAT4 = target: T1, STAT4 (Homo sapiens, UniProt Q14765); assay: CETSA, STAT4 in total cell lysates from NK-92 cells; conditions: NK-92 cell lysates, 100 μM compound
# T1 sequence (Q14765 1-748): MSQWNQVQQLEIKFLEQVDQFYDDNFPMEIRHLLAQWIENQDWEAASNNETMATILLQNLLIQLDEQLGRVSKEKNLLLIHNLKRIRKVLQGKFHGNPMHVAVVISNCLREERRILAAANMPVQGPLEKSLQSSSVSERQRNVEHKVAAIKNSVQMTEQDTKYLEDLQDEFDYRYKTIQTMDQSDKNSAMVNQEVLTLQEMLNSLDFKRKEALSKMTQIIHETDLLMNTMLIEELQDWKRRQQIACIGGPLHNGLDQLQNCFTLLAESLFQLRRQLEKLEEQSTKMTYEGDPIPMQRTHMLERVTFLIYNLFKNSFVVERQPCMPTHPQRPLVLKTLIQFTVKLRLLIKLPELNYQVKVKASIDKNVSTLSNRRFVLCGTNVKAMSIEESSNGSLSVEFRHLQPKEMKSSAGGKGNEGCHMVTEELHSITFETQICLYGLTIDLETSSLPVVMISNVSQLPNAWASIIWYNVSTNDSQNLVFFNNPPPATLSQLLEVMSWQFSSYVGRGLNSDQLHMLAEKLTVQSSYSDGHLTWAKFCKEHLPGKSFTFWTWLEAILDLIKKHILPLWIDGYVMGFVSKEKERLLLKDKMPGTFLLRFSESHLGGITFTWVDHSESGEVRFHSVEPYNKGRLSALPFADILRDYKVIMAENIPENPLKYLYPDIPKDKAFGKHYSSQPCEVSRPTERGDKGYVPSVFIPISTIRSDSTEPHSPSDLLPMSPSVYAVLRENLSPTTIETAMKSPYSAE
# Procedure: as §3
# NK-92 cells (DSMZ) were cultured in α-MEM containing 12.5% fetal bovine serum, 12.5% horse serum, 2 mM L-glutamine, penicillin/streptomycin antibiotics and 50 U/ml human recombinant IL-2 (all reagents from Gibco at Thermo Fisher). […]
# whole-cell lysates, cells were harvested by centrifugation, washed once with ice-cold PBS and resuspended at 3 x 10^6 cells per 100 µl in TBS supplemented with EDTA-free Halt Protease Inhibitor Cocktail (Fisher Scientific). […]
# as §1, §2
# STAT3, sequence (P40763 whole entry, species assumed, the tested form may be a part): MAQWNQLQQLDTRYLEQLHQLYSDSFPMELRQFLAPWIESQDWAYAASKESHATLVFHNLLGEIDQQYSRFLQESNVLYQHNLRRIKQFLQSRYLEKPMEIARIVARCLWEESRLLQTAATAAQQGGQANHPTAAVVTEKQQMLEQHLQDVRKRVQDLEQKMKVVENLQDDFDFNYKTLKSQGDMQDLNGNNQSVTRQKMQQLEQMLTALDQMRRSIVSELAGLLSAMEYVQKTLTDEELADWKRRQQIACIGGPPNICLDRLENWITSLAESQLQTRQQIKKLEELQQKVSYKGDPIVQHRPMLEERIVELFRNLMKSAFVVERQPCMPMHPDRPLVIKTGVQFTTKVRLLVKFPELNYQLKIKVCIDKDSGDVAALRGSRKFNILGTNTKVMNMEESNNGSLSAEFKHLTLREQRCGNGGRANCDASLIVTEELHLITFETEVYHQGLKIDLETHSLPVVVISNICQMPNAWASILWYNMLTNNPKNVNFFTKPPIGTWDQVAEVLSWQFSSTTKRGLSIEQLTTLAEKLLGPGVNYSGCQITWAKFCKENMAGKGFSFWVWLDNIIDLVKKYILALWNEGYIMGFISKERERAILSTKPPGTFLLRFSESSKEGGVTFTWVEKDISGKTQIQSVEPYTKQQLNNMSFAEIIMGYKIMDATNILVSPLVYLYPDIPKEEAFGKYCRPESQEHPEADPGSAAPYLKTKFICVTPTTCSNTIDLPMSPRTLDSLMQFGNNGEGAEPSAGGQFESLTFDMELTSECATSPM
structure (smiles),measurement,setting,value
"Cc1nc(/N=N/c2ccc(S(=O)(=O)O)cc2S(=O)(=O)O)c(COP(=O)(O)O)c(C=O)c1O [PPADS, pyridoxalphosphate‐6‐azophenyl‐2',4'‐disulfonic acid]",increase of the aggregation temperature of STAT3 (ΔT agg),STAT3,0.57 °C
same,aggregation temperature of STAT3 (T agg),STAT3; DMSO control 51.47 °C,52.04 °C
same,ΔT agg of total STAT5,[1],2.7 °C
same,aggregation temperature of total STAT5 (T agg),[1]; DMSO control 49.0 °C,51.7 °C
same,increase of the aggregation temperature of STAT4 (ΔT agg),STAT4,1.1 °C
same,aggregation temperature of STAT4 (T agg),STAT4; DMSO control 48.9 ± 0.4 °C,50.0 ± 0.4 °C and 50.0 °C
